Test results taken from patent publication US20240425478A1, “CYCLOPENTYLPYRAZOLE CDK2 INHIBITORS” (Genentech, Inc., priority 2021, published 2024).
Read-outs that look alike come from different tables or passages of the source.

How the values were obtained:
[1] = target: T1, Cyclin Dependent Kinase 1/Cyclin A2 (CDK1-cycA2) (Homo sapiens, UniProt P06493); test: CDK1-cycA2 TR-FRET (Lance) enzyme assay; format: biochemical; conditions: Table O, enzymatic assay
T1 construct: purchased ProQinase 0134-0054-1
Method in brief: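 TR-FRET (Lance) detection of phospho-4E-BP1 with a europium-labelled antibody after EDTA quench (15 mM final); signal taken as acceptor/donor ratio. Enzyme and compound were pre-incubated 30 min in HEPES pH 7.5 buffer with MgCl2, TCEP, BGG and Brij 35. Ki derived by Morrison fit.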

[2] = target: T2, Cyclin Dependent Kinase 2/Cyclin E1 (CDK2-cycE1) (Homo sapiens, UniProt P24941); test: CDK2-cycE1 TR-FRET (LANCE) enzyme assay; format: biochemical; conditions: for FS CDK1/CDK2 / FS CDK4/CDK2: fold selectivity;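 as to improvement in potency against CDK2 (Ki) over Comparator C: fold lower CDK2 Ki than comparator c (Ki 0.032 µM)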
T2 construct: purchased ProQinase 0050-0055-1
Method in brief: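 Kinase reaction buffer: 50 mM HEPES pH 7.5, 10 mM MgCl2, 2 mM TCEP, 0.05% BGG, 0.01% Brij 35, with 30 min compound–enzyme pre-incubation.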

[3] = target: T3, Cyclin Dependent Kinase 4/Cyclin D3 (CDK4-cycD3) (Homo sapiens, UniProt P11802); test: CDK4-cycD3 TR-FRET (LANCE) enzyme assay; format: biochemical; conditions: Table O, enzymatic assay
T3 construct: purchased Carna Biosciences 04-105
Method in brief: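 Compound dose responses pre-incubated 30 min with enzyme mix in 50 mM HEPES pH 7.5, 10 mM MgCl2, 2 mM TCEP, 0.05% BGG, 0.01% Brij 35. Reaction quenched with EDTA (15 mM final); Eu-anti-phospho-4E-BP1 TR-FRET detection, acceptor/donor ratio. Ki derived by Morrison equation.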

[4] = tested on: OVISE (JCRB1043, CCNE1-amplified); test: OVISE EdU incorporation cell proliferation assay (CDK2-dependent); format: cell-based; conditions: for IC50: cellular assay, read-out: CDK2 OVISE IC50; for FS SKOV-3/OVISE / FS p-H3/OVISE: fold selectivity; for FS p-H3/OVISE: cellular p-H3 IC50 over OVISE IC50
Method in brief: (§1)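 EdU incorporation (0.5 μM final, last 8 h) follows a 16 h compound exposure at 37 °C, 5% CO2 in RPMI plus 10% FBS, 0.5% DMSO. After fixation, imaging scores EdU-positive cells; a 4-parameter logistic fit of that fraction gives IC50.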

SKOV-3 (ATCC HTB-77) = test: SKOV-3 EdU incorporation cell proliferation assay (CDK4/6-dependent); format: cell-based; conditions: Homo sapiens, cellular assay, read-out: CDK4/6 SKOV-3 IC50
Method in brief: as §1

HCT116 cells = test: p-H3 HCT-116 mitotic release cell proliferation assay (cellular CDK1); format: cell-based; conditions: Homo sapiens, HCT-116; Table O, cellular assay; read-out: CDK1 p-H3 IC50
Experimental: Inhibition of cellular CDK1 determined by release of cells from nocodazole-induced mitotic arrest, as measured by decrease in phospho-Histone H3. Histone H3 (Ser 10) level is detected in cell lysates by producing a Fluorescence Resonance Energy Transfer (FRET) signal between two antibodies, Phospho-Histone H3 Cryptate (acting as the donor) and Phospho-Histone H3 d2 (acting as the acceptor).
Plates are allowed to rest overnight at 37° C./5% CO2. The following morning, nocodazole is diluted in complete medium, and 5 μL is added to each test well and positive control well for a final concentration of 500 nM. Plates are then incubated for 16 hours at 37° C./5% CO2. […] 10 μL of diluted compound is then transferred to the cell plate (final DMSO concentration 0.1%). Cell plates are then incubated for 4 hours in 37° C. 5% CO2. A cell lysis buffer is prepared on ice using reagents from the Phospho-Histone H3 (Ser10) cellular kit (Cisbio-64HH3PEG). Supernatant is discarded from the cell plate and 80 μL of the supplemented cell lysis buffer (1:99 dilution of the Blocking Reagent and the 1× cell lysis buffer provided in the kit) is added to each of the experimental wells. The cell lysis reaction is allowed to proceed at room temperature while shaking vigorously for 30 minutes. The 384-well HTRF (Homogeneous Time Resolved Fluorescence) plate is prepared by adding 2 μL of each diluted antibody (Phospho-Histone H3 Cryptate antibody and Phospho-Histone H3 d2 antibody diluted 19:1 in a detection buffer) and 12 μL of the supplemented cell lysis buffer to each well in the HTRF plate. 4 μL of the cell lysate is added to the prepared HTRF plate which is then sealed and the reaction is allowed to proceed for a minimum of 2 hours at room temperature.

[5] = Table O, enzymatic assay, read-out: CDK2 Ki
[6] = Table O, enzymatic CDK1 Ki over CDK2 Ki
[7] = Table O, enzymatic CDK4 Ki over CDK2 Ki
[8] = Table O, cellular SKOV-3 IC50 over OVISE IC50

T1 sequence (P06493 whole entry): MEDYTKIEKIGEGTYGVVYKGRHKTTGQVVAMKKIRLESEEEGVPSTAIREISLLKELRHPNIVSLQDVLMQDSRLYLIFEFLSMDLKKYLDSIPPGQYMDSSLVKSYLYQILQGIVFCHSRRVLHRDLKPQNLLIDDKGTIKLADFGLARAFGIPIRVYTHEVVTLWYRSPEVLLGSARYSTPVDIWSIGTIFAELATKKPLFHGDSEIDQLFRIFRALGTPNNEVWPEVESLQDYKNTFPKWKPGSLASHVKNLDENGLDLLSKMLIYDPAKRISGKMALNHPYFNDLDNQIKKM
T1 sequence (P20248 whole entry partner): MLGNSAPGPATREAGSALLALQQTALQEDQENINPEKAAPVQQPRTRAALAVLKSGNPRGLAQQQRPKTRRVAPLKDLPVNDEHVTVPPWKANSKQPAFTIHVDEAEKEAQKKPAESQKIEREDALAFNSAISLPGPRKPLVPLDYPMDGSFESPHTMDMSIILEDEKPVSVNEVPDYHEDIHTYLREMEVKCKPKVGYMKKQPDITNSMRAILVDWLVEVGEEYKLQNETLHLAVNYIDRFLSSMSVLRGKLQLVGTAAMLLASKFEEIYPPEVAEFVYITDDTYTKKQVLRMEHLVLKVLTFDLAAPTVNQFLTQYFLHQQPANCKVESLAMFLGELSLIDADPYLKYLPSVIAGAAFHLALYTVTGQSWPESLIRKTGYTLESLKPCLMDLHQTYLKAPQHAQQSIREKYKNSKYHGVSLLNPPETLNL
T3 sequence (P11802 whole entry): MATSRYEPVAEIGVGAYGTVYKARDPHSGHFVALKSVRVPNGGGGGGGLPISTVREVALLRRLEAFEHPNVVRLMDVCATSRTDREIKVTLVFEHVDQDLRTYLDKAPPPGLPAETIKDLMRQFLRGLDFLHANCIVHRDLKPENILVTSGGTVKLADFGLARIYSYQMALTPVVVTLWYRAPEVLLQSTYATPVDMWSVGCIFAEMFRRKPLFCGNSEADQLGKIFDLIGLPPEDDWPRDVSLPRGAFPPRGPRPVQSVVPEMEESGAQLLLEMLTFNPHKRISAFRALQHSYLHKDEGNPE
T3 sequence (P30281 whole entry partner): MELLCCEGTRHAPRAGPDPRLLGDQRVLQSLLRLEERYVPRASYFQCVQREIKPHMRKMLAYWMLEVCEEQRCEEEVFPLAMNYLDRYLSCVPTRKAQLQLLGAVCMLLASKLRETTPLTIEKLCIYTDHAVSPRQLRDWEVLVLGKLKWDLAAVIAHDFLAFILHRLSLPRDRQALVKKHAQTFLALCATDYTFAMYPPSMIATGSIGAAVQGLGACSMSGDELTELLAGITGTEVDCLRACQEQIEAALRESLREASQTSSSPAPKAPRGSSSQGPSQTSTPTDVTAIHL

SMILES	Ki [1] [nM]	Ki [2, 5] [nM]	FS CDK1/CDK2 [2, 6]	FS CDK4/CDK2 [2, 7]	Ki [3] [nM]	IC50 ([4]; Table O) [nM]	FS SKOV-3/OVISE [4, 8]	FS p-H3/OVISE ([4]; Table O)	IC50 (SKOV-3 (ATCC HTB-77); SK-OV-3, Table O) [nM]	IC50 (HCT116 cells) [nM]	increased fold-selectivity CDK4/CDK2 over Comparator C ([2]; Table Q, (+) sign after FS CDK4/CDK2)	Ki ([2]; Table Q, enzymatic assay, read-out: CDK2 Ki) [nM]	FS CDK1/CDK2 ([2]; Table Q, enzymatic)	FS CDK4/CDK2 ([2]; Table Q, enzymatic)	improvement in potency against CDK2 (Ki) over Comparator C ([2]; Table Q, in brackets after CDK2 Ki, Comparator C 0.032 μM) [fold]	Ki ([2]; read-out: CDK2 activity / potency (enzymatic assay)) [nM]	increased fold-selectivity SKOV-3/OVISE over Comparator C ([4]; Table Q, (+) sign after FS SKOV-3/OVISE)	FS SKOV-3/OVISE ([4]; Table Q, cellular)	improvement in CDK2 OVISE cell potency over Comparator C ([4]; Table Q, in brackets after OVISE IC50, Comparator C 5.5 μM) [fold]	IC50 (SKOV-3 (ATCC HTB-77); SK-OV-3, Table Q) [nM]
Cc1cc(Nc2cc([C@H]3CC[C@@H](OC(=O)NC45CC(C4)C5)C3)[nH]n2)ccn1 [Example 9, (1R,3S)-3-(3-((2-methylpyridin-4-yl)amino)-1H-pyrazol-5-yl)cyclopentyl bicyclo[1.1.1]pentan-1-ylcarbamate]	61	1.9	32	79	150	170	19	1.2	3300	210										
Cc1nccnc1Nc1cc([C@H]2CC[C@@H](OC(=O)NC3(C)COC3)C2)[nH]n1 [Example 8B, (1R,3S)-3-(3-((3-methylpyrazin-2-yl)amino)-1H-pyrazol-5-yl)cyclopentyl (3-methyloxetan-3-yl)carbamate]	52	0.66	79	212	140	87	34	1.6	3000	140										
Cc1nc(C#N)ccc1Nc1cc([C@H]2CC[C@@H](OC(=O)NC(C)(C)C)C2)[nH]n1 [Example 10D, (1R,3S)-3-(3-((6-cyano-2-methylpyridin-3-yl)amino)-1H-pyrazol-5-yl)cyclopentyl tert-butylcarbamate]	59	0.44	134	195	86	46	61	2.1	2800	97										
CC(C)NC(=O)O[C@@H]1CC[C@H](c2cc(Nc3ccc(=O)n(C)n3)n[nH]2)C1 [Example 2, (1R,3S)-3-(3-((1-methyl-6-oxo-1,6-dihydropyridazin-3-yl)amino)-1H-pyrazol-5-yl)cyclopentyl isopropylcarbamate]	16	0.44	36	550	240	93	120	1.9	11000	190	(+) (The (+) sign in Table Q signifies desirable increased fold-selectivity of the exemplary compounds over Comparator C)	0.44	36	550	73	≤ 1	(+) (The (+) sign in Table Q signifies desirable increased fold-selectivity of the exemplary compounds over Comparator C)	120	59	11000
